Test results from ChEMBL document CHEMBL5385976, “Recognition of arylmethylidene derivatives of imidazothiazolotriazinones as novel tubulin polymerization inhibitors” (RSC Med Chem, 2024).
pIC50: −log10 of the molar value. The source made the active and inactive calls. No cut-off for these calls is given here.

Columns and labels:
[1] = tested on: NCI-H226; assay: Antiproliferative activity against human NCI-H226 cells assessed as mean cell growth at 10 uM incubated for 48 hrs by SRB assay relative to control; type: functional
[2] = tested on: HT-29; assay: Inhibition of cell growth in human HT-29 cells incubated for 72 hrs by MTT assay; type: functional, cell-based; conditions: HT-29, 72 h
[3] = tested on: HT-29; assay: Downregulation of beta-actin level in human HT-29 cells upto 100 uM incubated for 48 hrs by Western blot analysis; type: functional, cell-based
[4] = molecular target: T1, Tubulin (Homo sapiens) (UniProt P68371+Q9H4B7+P0DPH7+P68366+Q13509+Q71U36+P04350+Q3ZCM7+P07437+P68363+Q9BQE3+Q6PEY2+Q13885+Q9BVA1+Q9BUF5); assay: Inhibition of tubulin polymerization in human HT-29 cells upto 100 uM incubated for 48 hrs by Western blot analysis; type: cell-based
[5] = tested on: Panc02; assay: Inhibition of cell growth in mouse Panc02 cells incubated for 72 hrs by MTT assay; type: functional
[6] = tested on: OVCAR-8; assay: Anticancer activity against human OVCAR-8 cells assessed as cell growth at 10 umol/L incubated for 48 hrs by SRB assay relative to control; type: functional; conditions: OVCAR-8, 48 h, dose 10 µmol/L, read-out: Activity
[7] = tested on: COLO357; assay: Inhibition of cell growth in human COLO357 cells incubated for 72 hrs by MTT assay; type: functional, cell-based
[8] = tested on: OVCAR-3; assay: Anticancer activity against human OVCAR-3 cells assessed as cell growth at 10 umol/L incubated for 48 hrs by SRB assay relative to control; type: functional; conditions: OVCAR-3, 48 h, dose 10 µmol/L, read-out: Activity
[9] = Inhibition of cell growth in human HaCaT cells incubated for 72 hrs by MTT assay; type: toxicity, cell-based
[10] = tested on: Panel NCI-60 (60 carcinoma cell lines); assay: Antiproliferative activity against human panel NCI-60 (60 carcinoma cell lines) assessed as total inhibition of cell growth incubated for 48 hrs by SRB assay; type: functional
[11] = molecular target: T1, Tubulin (Homo sapiens); assay: Inhibition of tubulin polymerization in human K562 cells at 0.5 uM incubated for 24 hrs by confocal microscopy; type: cell-based
[12] = tested on: T47D; assay: Anticancer activity against human T47D cells assessed as cell growth at 10 umol/L incubated for 48 hrs by SRB assay relative to control; type: functional; conditions: dose 10 µmol/L, read-out: Activity
[13] = tested on: K562; assay: Inhibition of cell growth in human K562 cells incubated for 72 hrs by MTT assay; type: functional, cell-based
[14] = tested on: Panel NCI-60 (60 carcinoma cell lines); assay: Antiproliferative activity against human panel NCI-60 (60 carcinoma cell lines) incubated for 48 hrs by SRB assay; type: functional
[15] = tested on: K562; assay: Antiproliferative activity against human K562 cells assessed as mean cell growth at 10 uM incubated for 48 hrs by SRB assay relative to control; type: functional

Structure (SMILES)	Activity [1]	pIC50 [2]	Activity [3]	inhibition [4]	GI50 [5]	growth at 10 µM [6]	pIC50 ([7]; COLO357, 72 h)	GI50 ([7]; COLO357, time 72 hrs)	growth at 10 µM [8]	IC50 at 72 h [9]	GI [10]	inhibition [11]	growth at 10 µM [12]	pIC50 ([13]; K562, 72 h)	GI50 ([13]; K562, time 72 hrs)	GI50 [14]	LC50 [14]	Activity [15]
COc1cc2c(c(OC)c1OC)-c1ccc(OC)c(=O)cc1[C@@H](NC(C)=O)CC2 [COLCHICINE]	8%	–	–	–	–	–	–	–	–	–	–	–	–	–	–	–	–	–
CCN1C(=O)N(CC)C2C1NN=c1s/c(=C\c3ccc(Cl)cc3Cl)c(=O)n12 (stereo not drawn)	–	8.26	Active	Active	16 nM	10.8%	8.22	16 nM	13.4%	3.5 nM	>66.8 µM	Active	58.8%	8.70	0.64 nM	80 nM	> 96400 nM	18%
